A melting point compilation (Tetko et al.)

First: N#CC(O)c1ccc([N+](=O)[O-])cc1 (stereo not drawn)
Second: N#Cc1cc([N+](=O)[O-])cnc1Cl
The melting point of the first is lower: 109 to 111 °C for the first, 119 to 121 °C for the second.

Compared with `Nc1ccc(S(=O)(=O)Nc2cccc(Cl)c2)cc1`, `Nc1ccc(Cl)c(S(=O)(=O)Nc2cccc(Cl)c2)c1` is higher in melting point: 132 to 134 °C for the first, 158 to 160 °C for the second.

First: Nc1ccc(Cc2nc3ccccc3s2)cc1
Second: O=C1CSC(=Cc2nc3ccccc3s2)N1
The melting point of the first is higher: 219 to 221 °C for the first, 186 to 188 °C for the second.

First: Nc1cccc(Oc2ncccn2)c1
Second: Nc1ccc(Cl)cc1-n1cccc1
The melting point of the first is higher: 125 to 127 °C for the first, 92 to 94 °C for the second.

First: O=C(O)c1nc(Cl)ccc1F
Second: COc1ccc(CC(=O)O)c(Cl)c1
The melting point of the first is higher: 149 to 151 °C for the first, 118 to 120 °C for the second.

First: COC(=O)c1n[nH]c(=O)c2ccccc12
Second: O=c1nc(Cl)sc2ccccc12
The melting point of the first is higher: 127 to 129 °C for the first, 108 to 110 °C for the second.

First: Cn1cc(N2CCC(N)C2=O)cn1 (stereo not drawn)
Second: Cn1cc(N2C(=O)C=CC2=O)cn1
The melting point of the first is lower: 131 to 133 °C for the first, 151 to 153 °C for the second.

First: O=C(NCCCCl)C1CCCC1
Second: CC(C)(C)OC(=O)N1CCC(CC(=O)O)CC1
The melting point of the first is lower: 66 to 68 °C for the first, 98 to 100 °C for the second.

Compared with `CN1CCN(c2ccc(C(=O)O)cc2[N+](=O)[O-])CC1`, `O=[N+]([O-])c1cc(S(=O)(=O)N2CCOCC2)ccc1Cl` is lower in melting point: 160 to 162 °C for the first, 153 to 155 °C for the second.

First: Nc1ccc2c(c1)C(=O)N(CC1CC1)C2=O
Second: Cc1ccc(N)cc1S(=O)(=O)N1CCOCC1
The melting point of the first is lower: 163 to 165 °C for the first, 186 to 188 °C for the second.

Compared with `CS(=O)(=O)c1cc(Br)ccc1N`, `CCOC(=O)COc1ccc(Br)cc1F` is lower in melting point: 129 to 131 °C for the first, 30 to 32 °C for the second.

First: N#Cc1cc(F)cc(CO)c1
Second: N#Cc1ccc(OCC(=O)O)c(Cl)c1
The melting point of the first is lower: 59 to 61 °C for the first, 178 to 180 °C for the second.

First: CC(=O)N1CSCC1C(=O)O (stereo not drawn)
Second: Cc1nnc2n1CC(C(=O)O)CC2 (stereo not drawn)
The melting point of the first is lower: 111 to 113 °C for the first, 249 to 251 °C for the second.

First: Clc1ccc(-n2cccn2)c(Cl)c1
Second: Nc1nncc(-c2cc(Cl)ccc2Cl)n1
The melting point of the first is lower: 34 to 36 °C for the first, 175 to 177 °C for the second.

Compared with `Cn1cncc1C(N)=O`, `CCOC(=O)c1ccn(-c2ccccc2N)n1` is lower in melting point: 178 to 180 °C for the first, 79 to 81 °C for the second.

First: N#CCCCN1CCOCC1
Second: N#CCN1CCN(c2ncccn2)CC1
The melting point of the first is lower: 67 to 69 °C for the first, 99 to 101 °C for the second.

First: Cc1oc(-c2cccs2)nc1CC(=O)O
Second: CCOc1cccnc1C(=O)O
The melting point of the first is higher: 185 to 187 °C for the first, 130 to 132 °C for the second.

First: O=C(O)c1nn(-c2ccccc2Cl)c2c1CCCC2
Second: Cc1nn(-c2ccccc2)c(C(F)F)c1C(=O)O
The melting point of the first is higher: 232 to 234 °C for the first, 206 to 208 °C for the second.

First: Nc1nc(-c2cc3ccccc3o2)cs1
Second: Cc1ccccc1Nc1nc(N)nc(CCl)n1
The melting point of the first is higher: 243 to 245 °C for the first, 203 to 207 °C for the second.

First: O=C1CCC(c2ccccc2)N1 (stereo not drawn)
Second: CC(NC(=O)CC#N)c1ccccc1 (stereo not drawn)
The melting point of the first is lower: 97 to 99 °C for the first, 115 to 117 °C for the second.

Compared with `O=S(=O)(NCCOc1ncc(C(F)(F)F)cc1Cl)c1c(F)cccc1F`, `CCC1(c2cccc(Cl)c2)NC(=O)NC1=O` (stereo not drawn) is higher in melting point: 110 to 112 °C for the first, 159 to 161 °C for the second.

First: COc1cc(-c2noc(CCl)n2)ccc1OC(F)F
Second: COC(=O)COc1ccc2cc(Br)ccc2c1
The melting point of the first is lower: 46 to 50 °C for the first, 109 to 111 °C for the second.

First: CC1CCCC(C)N1C(=O)COc1ccc(C(=O)O)cc1 (stereo not drawn)
Second: COc1ccc2c(c1)CCCC2CC(=O)O (stereo not drawn)
The melting point of the first is higher: 205 to 215 °C for the first, 84 to 86 °C for the second.

`N#Cc1n[nH]c2ccc(Cl)cc12` and `Cc1ccc2c(C)cc(=O)[nH]c2c1` cannot be ordered by melting point: 210 to 212 °C for the first, 209 to 211 °C for the second.

`CC(C1CC2CCC1C2)n1c(N)cc(=O)[nH]c1=O` (stereo not drawn) and `NS(=O)(=O)c1ccc(N2CCCC2=O)cc1` cannot be ordered by melting point: 248 to 250 °C for the first, 247 to 249 °C for the second.

First: O=C(O)CCc1nncn1-c1ccccc1
Second: O=C(O)CCCn1ccccc1=O
The melting point of the first is higher: 202 to 204 °C for the first, 121 to 123 °C for the second.

First: Nc1ccc(CCCC(=O)O)cc1
Second: C=CCNS(=O)(=O)Cc1ccc(N)cc1
The melting point of the first is lower: 121 to 124 °C for the first, 124 to 126 °C for the second.

First: COc1cc(Br)c(S(=O)(=O)Cl)cc1C(=O)O
Second: O=C(O)c1cc(C(=O)O)cc(S(=O)(=O)Cl)c1
The melting point of the first is lower: 196 to 198 °C for the first, 217 to 219 °C for the second.

First: Cc1nc(=O)cc[nH]1
Second: Cc1ccc2nc(CO)cc(=O)n2c1
The melting point of the first is higher: 213 to 215 °C for the first, 171 to 173 °C for the second.

Compared with `NCC1CCN(c2ccncc2)CC1`, `Nc1ncn(Cc2ccc(Br)cc2)n1` is higher in melting point: 72 to 74 °C for the first, 169 to 171 °C for the second.

Compared with `CC(C)(C)n1nc[nH]c1=O`, `CC(C)(C)OC(=O)NCc1cn[nH]c1` is lower in melting point: 219 to 221 °C for the first, 104 to 106 °C for the second.

First: COCCCS(=O)(=O)NCC(=O)O
Second: C=CCNC(=O)c1nc(C(=O)O)cs1
The melting point of the first is lower: 59 to 61 °C for the first, 147 to 149 °C for the second.

First: O=c1nc(S)[nH]nc1-c1cc(Cl)sc1Cl
Second: CC1=NN(c2cc(C)ccc2C)C(=O)C1
The melting point of the first is higher: 203 to 205 °C for the first, 164 to 166 °C for the second.

First: O=C(O)C=Cc1cn(-c2ccccc2)nc1-c1cccc([N+](=O)[O-])c1
Second: O=C(c1cccnc1)c1c[nH]c2ccccc12
The melting point of the first is higher: 248 to 250 °C for the first, 212 to 214 °C for the second.

First: O=C(O)c1cnc(-c2ncccn2)s1
Second: CCC(Oc1ccccc1C)C(=O)O (stereo not drawn)
The melting point of the first is higher: 217 to 219 °C for the first, 49 to 51 °C for the second.

Compared with `CC(c1ccccc1)c1ccc(O)cc1` (stereo not drawn), `Nc1ccccc1C(=O)NCc1ccco1` is higher in melting point: 57 to 59 °C for the first, 76 to 78 °C for the second.

Compound `CC(c1nnc(S)n1-c1ccc(F)cc1)N(C)C` (stereo not drawn) has a melting point of 169 to 171 °C.
